Data as given in the supplement of paper PMC10307832.

How the values were obtained:
Experiment in all cases: relative viability (nuclei count vs DMSO), 5 days (fraction); higher = more cells survive
Bosutinib = compound: COc1cc(Nc2c(C#N)cnc3cc(OCCCN4CCN(C)CC4)c(OC)cc23)c(Cl)cc1Cl [Bosutinib]
Summary of the method: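 Five library-drug doses, separated by factors of √10, were pinned into 1536-well plates holding lung cancer cell lines after an overnight stay at 37 °C. Cells were fixed, permeabilised and Hoechst-stained in one step after 5 days without medium change, then imaged at 4×. Viability compares treated-well with vehicle-well nuclei, counted in MetaXpress, as a median across plates. Passing plates had control CV below 25% and at least one doubling.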

Bosutinib + Crizotinib = compound: COc1cc(Nc2c(C#N)cnc3cc(OCCCN4CCN(C)CC4)c(OC)cc23)c(Cl)cc1Cl [Bosutinib] + C[C@@H](Oc1cc(-c2cnn(C3CCNCC3)c2)cnc1N)c1c(Cl)ccc(F)c1Cl [Crizotinib] (partner 1 µM)
Summary of the method: (§1)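 Values are medians from duplicate plates. Each reflects relative viability, defined as the nuclei count of treated wells over that of vehicle wells. Lung cancer cell lines in 1536-well plates were pin-tool dosed one day after seeding with one drug alone or with a fixed anchor-drug dose plus five library-drug doses (not always all listed) in √10 steps, then fixed, stained and imaged at 4× after 5 days.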

Bosutinib + Alpelisib = compound: COc1cc(Nc2c(C#N)cnc3cc(OCCCN4CCN(C)CC4)c(OC)cc23)c(Cl)cc1Cl [Bosutinib] + Cc1nc(NC(=O)N2CCC[C@H]2C(N)=O)sc1-c1ccnc(C(C)(C)C(F)(F)F)c1 [Alpelisib] (partner 2 µM)
Summary of the method: as §1

Bosutinib + Dasatinib = compound: COc1cc(Nc2c(C#N)cnc3cc(OCCCN4CCN(C)CC4)c(OC)cc23)c(Cl)cc1Cl [Bosutinib] + Cc1nc(Nc2ncc(C(=O)Nc3c(C)cccc3Cl)s2)cc(N2CCN(CCO)CC2)n1 [Dasatinib] (partner 0.075 µM)
Summary of the method: as §1

Bosutinib + Olaparib = compound: COc1cc(Nc2c(C#N)cnc3cc(OCCCN4CCN(C)CC4)c(OC)cc23)c(Cl)cc1Cl [Bosutinib] + O=C(c1cc(Cc2n[nH]c(=O)c3ccccc23)ccc1F)N1CCN(C(=O)C2CC2)CC1 [Olaparib] (partner 8 µM)
Summary of the method: as §1

Cell Line	relative viability (Bosutinib; 0.01 µM)	relative viability (Bosutinib; 0.03162 µM)	relative viability (Bosutinib; 0.1 µM)	relative viability (Bosutinib; 1 µM)	relative viability (Bosutinib + Crizotinib; first compound 0.01 µM)	relative viability (Bosutinib + Crizotinib; first compound 0.03162 µM)	relative viability (Bosutinib + Crizotinib; first compound 0.1 µM)	relative viability (Bosutinib + Crizotinib; first compound 1 µM)	relative viability (Bosutinib + Alpelisib; first compound 0.01 µM)	relative viability (Bosutinib + Alpelisib; first compound 0.03162 µM)	relative viability (Bosutinib + Alpelisib; first compound 0.1 µM)	relative viability (Bosutinib + Alpelisib; first compound 1 µM)	relative viability (Bosutinib + Dasatinib; first compound 0.01 µM)	relative viability (Bosutinib + Dasatinib; first compound 0.03162 µM)	relative viability (Bosutinib + Dasatinib; first compound 0.1 µM)	relative viability (Bosutinib + Dasatinib; first compound 1 µM)	relative viability (Bosutinib + Olaparib; first compound 0.01 µM)	relative viability (Bosutinib + Olaparib; first compound 0.03162 µM)	relative viability (Bosutinib + Olaparib; first compound 0.1 µM)	relative viability (Bosutinib + Olaparib; first compound 1 µM)
HCC-78	0.906	1.2	1.08	0.902	0.358	0.319	0.284	0.314	0.349	0.31	0.393	0.32	0.356	0.478	0.46	0.373	0.722	0.937	0.888	0.687
HCC-366	0.991	1	0.974	0.785	0.59	0.6	0.516	0.316	0.532	0.416	0.305	0.111	0.755	0.627	0.692	0.66	0.406	0.378	0.376	0.19
HCC-827	1.07	1.05	1.09	0.649	0.874	0.943	0.91	0.605	0.972	0.971	1.03	0.576	0.287	0.279	0.307	0.178	0.609	0.817	0.626	0.217
HOP-62	0.977	1.01	0.959	1.05	0.897	0.949	0.964	0.986	0.977	1	1.1	0.889	0.692	0.639	0.671	0.688		0.395	0.451	0.435
IA-LM	0.998	1.08	0.967	1.01	0.733	0.777	0.839	0.688	0.832	0.733	0.931	0.674					0.964	0.927	0.858	0.77
LC-2-ad	0.961	1.08	1.06	1	0.449	0.473	0.445	0.539	0.883	0.975	0.92	0.864	0.678	0.701	0.659	0.906	0.719	0.672	0.678	0.732
LCLC-97TM1	1.03	0.969	1.06	1.04	0.369	0.494	0.443	0.414	0.232	0.244	0.371	0.344	0.849	0.869	0.851	0.685	0.41	0.402	0.372	0.351
LCLC-103H	1.01	0.999	0.991	0.996	1.03	1.11	0.992	0.849	0.992	1.06	0.94	0.871	0.513	0.502	0.567	0.449	0.734	0.774	0.741	0.782
LK-2	0.942	0.972	0.929	0.867	0.258	0.227	0.248	0.224	1.11	1.08	1.05	0.761	0.288	0.287	0.264	0.296	0.538	0.962	0.807	0.707
LOU-NH91	0.941	0.999	0.971	0.779	0.737	0.723	0.707	0.49	0.807	0.7	0.638	0.46	0.578	0.577	0.547	0.556	0.889	0.868	0.898	0.697
LU99A	0.958	1.02	1.04	0.606	0.527	0.561	0.563	0.647	0.53	0.545	0.568	0.674	0.611	0.582	0.635	0.548	0.234	0.291	0.284	0.245
LXF-289	1	1.01	1.03	1.01	0.829	0.823	0.79	0.898	1.03	0.986	1.01	1.06	0.231	0.213	0.2	0.224	1.05	1.12	0.972	1.24
NCI-H522	0.935	1.03	1.05	0.895									0.89	0.691	0.794	0.979	0.616	0.645	0.735	0.619
NCI-H1395	0.932	0.914	1.01	0.817					1.23	1.09	1.18	0.913	0.414	0.429	0.405	0.436	0.456	0.511	0.468	0.487
NCI-H1650	1.01	0.846	0.778	0.783	0.921	0.989	0.908	0.496					0.357	0.317	0.375	0.457	0.705	0.717	0.632	0.565
NCI-H1793	0.916	0.84	0.791	0.588					0.669	0.603	0.711	0.49	0.465	0.392	0.391	0.347	0.815	0.804	0.755	0.539
SW 900	0.856	0.706	0.801	0.815									0.774		0.682	0.749	0.824	0.769	0.766	0.538
